Reference: paper PMC8699473, “An Easily Expandable Multi-Drug LC-MS Assay for the Simultaneous Quantification of 57 Oral Antitumor Drugs in Human Plasma” (Cancers, 2021)
Like-named read-outs stand apart in the source and are kept apart here.

Test: Freeze-thaw stability in spiked pooled human plasma
Assay type: physicochemical

SMILES | Freeze-Thaw Accuracy [%] (validation standard 2xLLOV) | Freeze-Thaw Accuracy [%] (validation standard LLOV) | Freeze-Thaw Accuracy [%] (validation standard MOV) | Freeze-Thaw Accuracy [%] (validation standard ULOV) | Freeze-Thaw Accuracy [%]
Cc1cn(-c2cc(NC(=O)c3ccc(C)c(Nc4nccc(-c5cccnc5)n4)c3)cc(C(F)(F)F)c2)cn1 [Nilotinib] | 98.5 | 92.8 | 100.9 | 96.0 | 
COC(=O)c1ccc2c(c1)NC(=O)/C2=C(\Nc1ccc(N(C)C(=O)CN2CCN(C)CC2)cc1)c1ccccc1 [Nintedanib] | 103.0 | 93.2 | 96.9 | 95.8 | 
NC(=O)c1cccc2cn(-c3ccc([C@@H]4CCCNC4)cc3)nc12 [Niraparib] | 96.8 | 98.0 | 96.5 | 97.1 | 
O=C(c1cc(Cc2n[nH]c(=O)c3ccccc23)ccc1F)N1CCN(C(=O)C2CC2)CC1 [Olaparib] | 99.5 | 113.4 | 96.6 | 100.5 | 
Cc1[nH]c2ccccc2c1CCNCc1ccc(/C=C/C(=O)NO)cc1 [Panobinostat] | 107.5 | 104.3 | 98.8 | 102.3 | 
Nc1cccc2c1C(=O)N(C1CCC(=O)NC1=O)C2=O (centres unmarked) [Pomalidomide] | 90.9 | 74.4 | 90.1 | 92.4 | 
Cc1ccc(C(=O)Nc2ccc(CN3CCN(C)CC3)c(C(F)(F)F)c2)cc1C#Cc1cnc2cccnn12 [Ponatinib] | 101.8 |  | 99.3 | 100.2 | 101.5
CNC(=O)c1cc(Oc2ccc(NC(=O)Nc3ccc(Cl)c(C(F)(F)F)c3)c(F)c2)ccn1 [Regorafenib] | 97.1 | 101.6 | 96.2 | 98.6 | 
CN(C)C(=O)c1cc2cnc(Nc3ccc(N4CCNCC4)cn3)nc2n1C1CCCC1 [Ribociclib] | 103.9 | 86.3 |  | 92.4 | 
N#CC[C@H](C1CCCC1)n1cc(-c2ncnc3[nH]ccc23)cn1 [Ruxolitinib] | 94.7 | 92.5 | 96.2 | 97.2 | 
Cc1c(C(=O)Nc2ccc(N3C[C@@H](C)O[C@@H](C)C3)nc2)cccc1-c1ccc(OC(F)(F)F)cc1 [Sonidegib] | 97.9 | 103.7 | 96.5 | 99.0 | 
CNC(=O)c1cc(Oc2ccc(NC(=O)Nc3ccc(Cl)c(C(F)(F)F)c3)cc2)ccn1 [Sorafenib] | 97.6 | 103.3 | 96.9 | 98.7 | 
CCN(CC)CCNC(=O)c1c(C)[nH]c(/C=C2\C(=O)Nc3ccc(F)cc32)c1C [Sunitinib] | 102.8 | 117.0 | 99.1 | 100.3 | 
O=C1CCC(N2C(=O)c3ccccc3C2=O)C(=O)N1 (centres unmarked) [Thalidomide] | 78.3 | 83.3 | 74.7 | 72.8 | 
COc1cc2nccc(Oc3ccc(NC(=O)Nc4cc(C)on4)c(Cl)c3)c2cc1OC [Tivozanib] | 96.8 | 90.0 | 99.9 | 98.1 | 
CC(=O)Nc1cccc(-n2c(=O)n(C3CC3)c(=O)c3c(Nc4ccc(I)cc4F)n(C)c(=O)c(C)c32)c1 [Trametinib] | 97.6 | 93.8 | 102.5 | 97.0 | 
O=c1[nH]c(=O)n([C@H]2C[C@H](O)[C@@H](CO)O2)cc1C(F)(F)F [Trifluridine] | 101.6 | 80.9 | 94.4 | 91.6 | 
CCCS(=O)(=O)Nc1ccc(F)c(C(=O)c2c[nH]c3ncc(-c4ccc(Cl)cc4)cc23)c1F [Vemurafenib] | 98.2 | 101.9 | 97.5 | 99.2 | 
CC1(C)CCC(CN2CCN(c3ccc(C(=O)NS(=O)(=O)c4ccc(NCC5CCOCC5)c([N+](=O)[O-])c4)c(Oc4cnc5[nH]ccc5c4)c3)CC2)=C(c2ccc(Cl)cc2)C1 [Venetoclax] | 102.4 | 105.4 | 97.8 | 101.9 | 
CCC1=C[C@@H]2CN(C1)Cc1c([nH]c3ccccc13)[C@@](C(=O)OC)(c1cc3c(cc1OC)N(C)[C@H]1[C@@](O)(C(=O)OC)[C@H](OC(C)=O)[C@]4(CC)C=CCN5CC[C@]31[C@@H]54)C2 [Vinorelbine] | 105.8 | 120.0 | 95.7 | 96.7 | 
CS(=O)(=O)c1ccc(C(=O)Nc2ccc(Cl)c(-c3ccccn3)c2)c(Cl)c1 [Vismodegib] | 103.4 | 77.6 | 103.2 | 94.1 | 
